This is an account of results in PMC3060082 (Journal of medicinal chemistry, 2010).

Structures are written as SMILES.

In experiment [1] the test system is NAADP receptor. Briefly: Ca2+ release from Ca2+ loaded sea urchin egg homogenates. The class given is biochemical, sea urchin (Strongylocentrotus purpuratus). To be noted: for potency for Ca2+ release compared to NAADP (fold less potent): text summary of concentration response curves, Figure 2 / Table 3; for Fold increase in EC50: relative to NAADP (1); for concentration as low as which calcium-ion release is induced: Figure 1 traces; for amount of calcium release at saturating concentrations: compared with NAADP.

Experiment [2] has as its system NAADP receptor. Briefly: Competition ligand binding with [32P]NAADP in sea urchin egg homogenate. To be noted: assay not specified.
Experiment [3] relates to NAADP receptor. The class given is biochemical, sea urchin. To be noted: 9 min pretreatment at 1 nM or higher (subthreshold concentration).

`Nc1cc[n+]([C@H]2O[C@@H](COP(=O)(O)OP(=O)(O)OC[C@H]3O[C@@H](n4cnc5c(N)ncnc54)[C@H](OP(=O)(O)O)[C@@H]3O)[C@H](O)[C@@H]2O)cc1C(=O)[O-]` [compound 16, 4-amino-NAADP]: the “potency for Ca2+ release compared to NAADP (fold less potent)” value (“potency … (fold less potent)” below) in experiment [1] was “two hundred to two thousand fold less potent”. Moreover, in experiment [2], the “loss of potency relative to NAADP” value is reported as 100 to 200 fold.
As to `Cc1cc[n+]([C@H]2O[C@@H](COP(=O)(O)OP(=O)(O)OC[C@H]3O[C@@H](n4cnc5c(N)ncnc54)[C@H](OP(=O)(O)O)[C@@H]3O)[C@H](O)[C@@H]2O)cc1C(=O)[O-]` [compound 17, 4-methyl-NAADP], the “potency for Ca2+ release compared with the 5-isomer 21” value in experiment [1] (Figure 1) is listed as “significantly less potent”. Also, the “potency … (fold less potent)” value in experiment [1] was “two hundred to two thousand fold less potent”. Moreover, the “loss of potency relative to NAADP” value in experiment [2] fell in the range of 100 to 200 fold.
`CCCCc1cc[n+]([C@H]2O[C@@H](COP(=O)(O)OP(=O)(O)OC[C@H]3O[C@@H](n4cnc5c(N)ncnc54)[C@H](OP(=O)(O)O)[C@@H]3O)[C@H](O)[C@@H]2O)cc1C(=O)[O-]` [compound 18, 4-n-butyl-NAADP]: the “Fold increase in EC50” value in experiment [1] is > 50,000 fold.
Still for that read-out and setting: in the case of `Nc1ncnc2c1ncn2[C@@H]1O[C@H](COP(=O)(O)OP(=O)(O)OC[C@@H]2O[C@H]([n+]3ccc(-c4ccccc4)c(C(=O)[O-])c3)[C@@H](O)[C@H]2O)[C@@H](O)[C@H]1OP(=O)(O)O` [compound 19, 4-phenyl-NAADP] it was > 50,000 fold.
For `Nc1cc(C(=O)[O-])c[n+]([C@H]2O[C@@H](COP(=O)(O)OP(=O)(O)OC[C@H]3O[C@@H](n4cnc5c(N)ncnc54)[C@H](OP(=O)(O)O)[C@@H]3O)[C@H](O)[C@@H]2O)c1` [compound 20, 5-amino-NAADP], in experiment [1], the “concentration as low as which calcium-ion release is induced” value turned out to be 2 nM, the “amount of calcium release at saturating concentrations” value is “same amount of calcium release as did the full agonist NAADP” and the “potency … (fold less potent)” value is on record as “approximately equipotent with NAADP”. The “loss of potency relative to NAADP” value in experiment [2] is “only slightly less potent than is NAADP itself”.
In the case of `Cc1cc(C(=O)[O-])c[n+]([C@H]2O[C@@H](COP(=O)(O)OP(=O)(O)OC[C@H]3O[C@@H](n4cnc5c(N)ncnc54)[C@H](OP(=O)(O)O)[C@@H]3O)[C@H](O)[C@@H]2O)c1` [compound 21, 5-methyl-NAADP], in experiment [1], the “concentration as low as which calcium-ion release is induced” value was 2 nM, the “amount of calcium release at saturating concentrations” value is reported as “same amount of calcium release as did the full agonist NAADP” and the “potency … (fold less potent)” value is “approximately equipotent with NAADP”. Also, the “loss of potency relative to NAADP” value in experiment [2] is listed as “only slightly less potent than is NAADP itself”. For the same compound, the “receptor desensitization to 1 μM NAADP after pretreatment” value in experiment [3] is recorded as “same characteristic receptor desensitization as does NAADP itself”.
On to `Nc1ncnc2c1ncn2[C@@H]1O[C@H](COP(=O)(O)OP(=O)(O)OC[C@@H]2O[C@H]([n+]3cc(C(=O)[O-])cc(C(=O)O)c3)[C@@H](O)[C@H]2O)[C@@H](O)[C@H]1OP(=O)(O)O` [compound 22, 5-carboxy-NAADP], for which the “Fold increase in EC50” value in experiment [1] is > 50,000 fold.
`CCc1cc(C(=O)[O-])c[n+]([C@H]2O[C@@H](COP(=O)(O)OP(=O)(O)OC[C@H]3O[C@@H](n4cnc5c(N)ncnc54)[C@H](OP(=O)(O)O)[C@@H]3O)[C@H](O)[C@@H]2O)c1` [compound 23, 5-ethyl-NAADP]: the “potency … (fold less potent)” value in experiment [1] lay in the range of 10 to 100 fold. Further, in experiment [2], the “loss of potency relative to NAADP” value amounted to 20 fold.
As to `[N-]=[N+]=Nc1cc(C(=O)[O-])c[n+]([C@H]2O[C@@H](COP(=O)(O)OP(=O)(O)OC[C@H]3O[C@@H](n4cnc5c(N)ncnc54)[C@H](OP(=O)(O)O)[C@@H]3O)[C@H](O)[C@@H]2O)c1` [compound 24, 5-azido-NAADP], in experiment [1], the “potency … (fold less potent)” value was 10 to 100 fold.
